This experiment deals with T1, Glucocorticoid Receptor (GR) (Homo sapiens, UniProt P04150).
T1 construct: purchased Invitrogen P2816
T1 sequence (P04150 1-777): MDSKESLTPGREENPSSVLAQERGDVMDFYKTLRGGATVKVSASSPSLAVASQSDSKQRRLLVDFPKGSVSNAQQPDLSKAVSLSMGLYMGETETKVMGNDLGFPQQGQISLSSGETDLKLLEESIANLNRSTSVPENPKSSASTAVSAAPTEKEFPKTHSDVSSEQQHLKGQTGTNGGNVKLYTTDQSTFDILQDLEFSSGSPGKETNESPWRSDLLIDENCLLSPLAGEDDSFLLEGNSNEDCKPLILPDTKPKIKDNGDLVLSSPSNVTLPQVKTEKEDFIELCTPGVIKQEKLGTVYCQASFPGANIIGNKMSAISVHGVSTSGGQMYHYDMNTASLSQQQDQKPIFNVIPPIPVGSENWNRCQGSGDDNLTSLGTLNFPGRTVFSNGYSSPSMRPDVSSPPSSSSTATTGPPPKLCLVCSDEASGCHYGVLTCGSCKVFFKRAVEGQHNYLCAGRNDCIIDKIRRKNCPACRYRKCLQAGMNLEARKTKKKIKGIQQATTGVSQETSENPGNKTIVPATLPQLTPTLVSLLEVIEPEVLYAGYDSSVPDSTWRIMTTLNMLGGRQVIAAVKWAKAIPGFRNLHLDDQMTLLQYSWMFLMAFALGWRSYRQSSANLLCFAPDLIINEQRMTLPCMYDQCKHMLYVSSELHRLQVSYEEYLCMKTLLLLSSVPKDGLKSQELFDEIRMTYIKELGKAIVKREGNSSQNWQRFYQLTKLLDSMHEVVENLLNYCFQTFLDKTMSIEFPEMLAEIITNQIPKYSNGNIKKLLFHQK
Nature of the experiment: GR receptor competitor assay by fluorescence polarization (Invitrogen GR competitor assay kit, cat No. P2816). To be noted: 20 μM test compound solution, 10 μL per well plus 5 μL 4×GS1 and 5 μL 4×GR solution; recombinant human GR; 2 to 4 hours at room temperature; a ratio of 100% or more is indicated by 100%; read-out: GR Binding ratio (%). On the procedure:
A detailed explanation of this matter will be described in the section of “Pharmacological Test” in Examples described below. In order to find the usefulness of the present compound as a pharmaceutical, a glucocorticoid receptor competitor assay was carried out by a fluorescence polarization method by using a glucocorticoid receptor competitor assay kit (manufactured by Invitrogen, cat No P2816) to study the glucocorticoid receptor binding activity of the present compound.
1. Evaluation Test for Binding Activity to Glucocorticoid Receptor (Hereinafter Referred to as “GR”)
In order to evaluate a binding activity to GR, a receptor competitor assay was carried out by a fluorescence polarization method. In the assay, a GR competitor assay kit (manufactured by Invitrogen, cat No. P2816) was used, and a procedure was carried out according to the protocol attached to the kit. Hereinafter, the specific method will be described.
(Preparation of Reagents)
GR screening buffer: A buffer containing 10 mM potassium phosphate (pH 7.4), 20 mM sodium molybdate (Na2MoO4), 0.1 mM ethylene diamine tetraacetic acid (EDTA), 5 mM dithiothreitol (DTT), 0.1 mM stabilizing peptide and 2% dimethylsulfoxide was prepared.
4×GS1 solution: Fluormone™ GS1, which is a fluorescent glucocorticoid ligand, was diluted with GR screening buffer, whereby a 4 nM solution was prepared.
4×GR solution: Recombinant human GR was diluted with GR screening buffer, whereby a 16 nM solution was prepared.
(Preparation of Test Compound Solution)
After a test compound was dissolved in dimethylsulfoxide, the resulting solution was diluted with GR screening buffer, whereby a 20 μM test compound solution was prepared.
(Test Method and Measurement Method)
1) The test compound solution was added in an amount of 10 μL into each well of a 384-well plate, and then, 4×GS1 solution and 4×GR solution were added in an amount of 5 μL into each well, respectively.
2) The plate was incubated in a dark place at room temperature for 2 to 4 hours.
3) By using a multimode plate reader, Analyst™ HT (manufactured by LJL Biosystems), fluorescence polarization of each well was measured. As the blank, a well containing GR screening buffer in place of the test compound and 4×GS1 solution was used.
4) The same procedure as that in the above 1) to 3) was carried out except that GR screening buffer was used in place of the test compound solution, and the obtained result was taken as the negative control.
5) The same procedure as that in the above 1) to 3) was carried out except that 2 mM dexamethasone was used in place of the test compound solution, and the obtained result was taken as the positive control.
(Calculation Equation of GR Binding Ratio)
A GR binding ratio (%) was calculated from the following equation. GR binding ratio (%)=100×[1−(fluorescence polarization of test compound solution−fluorescence polarization of positive control solution)/(fluorescence polarization of negative control solution−fluorescence polarization of positive control solution)] (Test Results and Discussion)

Structures can show the parent of a compound that is named as a salt.

`COc1cc(OC(=O)c2occc2C)ccc1-c1ccc2c(c1COc1cc(F)ccc1C)C(C)=CC(C)(C)N2` [Compound 1-71, 5-(5-Fluoro-2-methylphenoxymethyl)-6-[2-methoxy-4-(3-methylfuran-2-ylcarbonyloxy)phenyl]-2,2,4-trimethyl-1,2-dihydroquinoline]: the inhibition at 10 µM stood at 100%.

In the case of `COc1cc(OC(=O)C(C)(C)C)ccc1-c1ccc2c(c1COc1cc(F)ccc1C)C(C)=CC(C)(C)N2` [Compound 1-72, 6-(4-t-Butylcarbonyloxy-2-methoxyphenyl)-5-(5-fluoro-2-methylphenoxymethyl)-2,2,4-trimethyl-1,2-dihydroquinoline], the inhibition at 10 µM worked out at 98%. For `COc1cc(OC(=O)c2cncnc2)ccc1-c1ccc2c(c1COc1cc(F)ccc1C)C(C)=CC(C)(C)N2` [Compound 1-78, 5-(5-Fluoro-2-methylphenoxymethyl)-6-[2-methoxy-4-(pyrimidin-5-ylcarbonyloxy)phenyl]-2,2,4-trimethyl-1,2-dihydroquinoline], the inhibition at 10 µM stood at 100%.

For `COc1cc(OC(=O)c2ccc([N+](=O)[O-])o2)ccc1-c1ccc2c(c1COc1cc(F)ccc1C)C(C)=CC(C)(C)N2` [Compound 1-86, 5-(5-Fluoro-2-methylphenoxymethyl)-6-[2-methoxy-4-(5-nitrofuran-2-ylcarbonyloxy)phenyl]-2,2,4-trimethyl-1,2-dihydroquinoline], the inhibition at 10 µM amounted to 91%. `COc1cc(OC(=O)c2ccnc(Cl)c2)ccc1-c1ccc2c(c1COc1cc(F)ccc1C)C(C)=CC(C)(C)N2` [Compound 1-90, 6-[4-(2-Chloropyridin-4-ylcarbonyloxy)-2-methoxyphenyl]-5-(5-fluoro-2-methylphenoxymethyl)-2,2,4-trimethyl-1,2-dihydroquinoline]: the inhibition at 10 µM stood at 95%. Regarding `COc1cc(OC(=O)c2ccncc2F)ccc1-c1ccc2c(c1COc1cc(F)ccc1C)C(C)=CC(C)(C)N2` [Compound 1-91, 5-(5-Fluoro-2-methylphenoxymethyl)-6-[4-(3-fluoropyridin-4-ylcarbonyloxy)-2-methoxyphenyl]-2,2,4-trimethyl-1,2-dihydroquinoline], the inhibition at 10 µM was 96%. For the compound `COc1ccccc1C(=O)Oc1ccc(-c2ccc3c(c2COc2cc([N+](=O)[O-])ccc2C)C(C)=CC(C)(C)N3)c(OC)c1` [Compound 1-93, 6-[2-Methoxy-4-(2-methoxybenzoyloxy)phenyl]-5-(2-methyl-5-nitrophenoxymethyl)-2,2,4-trimethyl-1,2-dihydroquinoline], the inhibition at 10 µM is 92%. For `COc1cc(OC(=O)c2cccnc2)ccc1-c1ccc2c(c1COc1cc([N+](=O)[O-])ccc1C)C(C)=CC(C)(C)N2` [Compound 1-94, 6-[2-Methoxy-4-(pyridin-3-ylcarbonyloxy)phenyl]-5-(2-methyl-5-nitrophenoxymethyl)-2,2,4-trimethyl-1,2-dihydroquinoline], the inhibition at 10 µM came to 100%.

As to `COc1cc(OC(=O)c2ccco2)ccc1-c1ccc2c(c1COc1cc([N+](=O)[O-])ccc1C)C(C)=CC(C)(C)N2` [Compound 1-95, 6-[4-(Furan-2-ylcarbonyloxy)-2-methoxyphenyl]-5-(2-methyl-5-nitrophenoxymethyl)-2,2,4-trimethyl-1,2-dihydroquinoline], the inhibition at 10 µM came out at 93%. In the case of `COc1ccc([N+](=O)[O-])cc1OCc1c(-c2ccc(OC(=O)c3ccccc3Cl)cc2OC)ccc2c1C(C)=CC(C)(C)N2` [Compound 1-98, 6-[4-(2-Chlorobenzoyloxy)-2-methoxyphenyl]-5-(2-methoxy-5-nitrophenoxymethyl)-2,2,4-trimethyl-1,2-dihydroquinoline], the inhibition at 10 µM came to 100%. Consider `COc1ccc([N+](=O)[O-])cc1OCc1c(-c2ccc(OC(=O)c3cccnc3C)cc2OC)ccc2c1C(C)=CC(C)(C)N2` [Compound 1-101, 6-[2-Methoxy-4-(2-methylpyridin-3-ylcarbonyloxy)phenyl]-5-(2-methoxy-5-nitrophenoxymethyl)-2,2,4-trimethyl-1,2-dihydroquinoline], for which the inhibition at 10 µM is 99%. For `COc1ccc([N+](=O)[O-])cc1OCc1c(-c2ccc(OC(=O)c3ccccc3OC)cc2OC)ccc2c1C(C)=CC(C)(C)N2` [Compound 1-102, 6-[2-Methoxy-4-(2-methoxybenzoyloxy)phenyl]-5-(2-methoxy-5-nitrophenoxymethyl)-2,2,4-trimethyl-1,2-dihydroquinoline] the value was 100%; for `COc1ccc([N+](=O)[O-])cc1OCc1c(-c2ccc(OC(=O)c3ccsc3)cc2OC)ccc2c1C(C)=CC(C)(C)N2` [Compound 1-115, 5-(2-Methoxy-5-nitrophenoxymethyl)-6-[2-methoxy-4-(thiophen-3-ylcarbonyloxy)phenyl]-2,2,4-trimethyl-1,2-dihydroquinoline], 97%.

As for `COc1cc(OC(=O)c2ccoc2)ccc1-c1ccc2c(c1COc1cc([N+](=O)[O-])ccc1C)C(C)=CC(C)(C)N2` [Compound 1-121, 6-[4-(Furan-3-ylcarbonyloxy)-2-methoxyphenyl]-5-(2-methyl-5-nitrophenoxymethyl)-2,2,4-trimethyl-1,2-dihydroquinoline], the inhibition at 10 µM turned out to be 100%. In the case of `COc1cc(OC(=O)c2cccnc2C)ccc1-c1ccc2c(c1COc1cc([N+](=O)[O-])ccc1C)C(C)=CC(C)(C)N2` [Compound 1-122, 6-[2-Methoxy-4-(2-methylpyridin-3-ylcarbonyloxy)phenyl]-5-(2-methyl-5-nitrophenoxymethyl)-2,2,4-trimethyl-1,2-dihydroquinoline], the inhibition at 10 µM stood at 100%. `COc1cc(OC(=O)c2cccnc2OC)ccc1-c1ccc2c(c1COc1cc(F)ccc1C)C(C)=CC(C)(C)N2` [Compound 1-125, 5-(5-Fluoro-2-methylphenoxymethyl)-6-[2-methoxy-4-(2-methoxypyridin-3-ylcarbonyloxy)phenyl]-2,2,4-trimethyl-1,2-dihydroquinoline]: the inhibition at 10 µM is 100%. Turning to `COc1cc(OC(=O)CN)ccc1-c1ccc2c(c1COc1cc(F)ccc1C)C(C)=CC(C)(C)N2` [Compound 3-1, 6-(4-Aminoacetoxy-2-methoxyphenyl)-5-(5-fluoro-2-methylphenoxymethyl)-2,2,4-trimethyl-1,2-dihydroquinoline monohydrochloride], the inhibition at 10 µM came out at 100%. For `CCCS(=O)(=O)Oc1ccc(-c2ccc3c(c2COc2cc(F)ccc2C)C(C)=CC(C)(C)N3)c(OC)c1` [Compound 4-11, 5-(5-Fluoro-2-methylphenoxymethyl)-6-(2-methoxy-4-propylsulfonyloxyphenyl)-2,2,4-trimethyl-1,2-dihydroquinoline], the inhibition at 10 µM was 100%. As for `CCS(=O)(=O)Oc1ccc(-c2ccc3c(c2COc2cc(F)ccc2C)C(C)=CC(C)(C)N3)c(OC)c1` [Compound 4-12, 6-(4-Ethylsulfonyloxy-2-methoxyphenyl)-5-(5-fluoro-2-methylphenoxymethyl)-2,2,4-trimethyl-1,2-dihydroquinoline], the figure is 92%.

(Values after patent US8440660B2 (Santen Pharmaceutical Co., Ltd., priority 2006, dated 2013).)
